Measured values from patent US8592374B2, “Neurotrophic peptides” (Research Foundation for Mental Hygiene, Inc., priority 2007, dated 2013).

Columns and labels:
[1] = system: dentate gyrus progenitor cells; experiment: Cell proliferation (BrdU labeled cells) in the dentate gyrus of mice given CNTF peptides i.p.; type: in vivo; conditions: for proliferation of dentate gyrus progenitor cells: BrdU labeling, 8-10 month old female C57BL6 mice
From the text: (§1) All experiments involving mice were done on 8-10 month old female retired breeders of C57BL6 background. A total of 33 mice were divided into 10 groups of 3 animals each (except control group which had 6 mice). The groups are described in Table 1. Details of CNTF peptides are described in Table 2.
(§2) The animals were kept in groups of 3 per cage. The mice were given daily intraperitoneal injections of four CNTF peptides either separately or in a mixture for 2 weeks as described in Table 1. From day 2, BrdU (Bromodeoxyuridine; 150 mg/Kg) was added to the injections. The animals were sacrificed 24 hours after the last injection. Briefly, the animals were perfused transcardially with PBS and their brains taken out and dissected into halves. One hemisphere from each animal was frozen for biochemical analysis and the other was fixed in 4% paraformaldehyde for 48 hours followed by equilibration in 30% sucrose in PBS overnight. These were then processed for immunohistochemistry.
Fixed tissues were cut into 40 μm sections on a freezing sliding microtome. One in 5 sections per brain was processed for BrdU staining and visualized by immunoflorecence. Cell counting was done on these sections to determine the number of BrdU labeled cells (representing newly born cells) in the dentate gyrus of the hippocampus. The area of counting was limited to the granule cell layer and the subgranular zone (a two-nucleus thick layer adjacent to the granule cell layer). For counting purposes, the dentate gyrus was divided into two areas, the outer granule cell layer (oGCL) consisting of one half of the granule cell layer, and the subgranular zone (SGZ) of the inner half (towards the hilus) of the granule cell layer plus a two-nucleus thick layer adjacent to the outer border of the hilus. Cell counting was done on confocal images of the sections according to the optical dissector principle. Volumetric analysis was carried out with the help of Image Pro software.
as §2, with “table” for “Table”, “injection (FIG. 1).” for “injection.”
(§3) Fixed tissues were cut into 40 μm sections on a freezing sliding microtome. One in 5 sections per brain was processed for BrdU staining and visualized by immunoflorecence. Cell counting was done on these sections to determine the number of BrdU labeled cells (representing newly born cells) in the dentate gyrus of the hippocampus. The area of counting was limited to the granule cell layer and the subgranular zone (a two-nucleus thick layer adjacent to the granule cell layer). For counting purposes, the dentate gyrus was divided into two areas, the outer granule cell layer (oGCL) consisting of out half of the granule cell layer, and the […] comprising of the inner half (towards the hilus) of the granule cell layer plus a two-nucleus thick layer adjacent to the outer border of the hilus. Cell counting was done on confocal images of the sections according to the optical dissector principle. Volumetric analysis was carried out with the help of Image Pro software.

[2] = system: dentate gyrus progenitors; experiment: DCX expression in BrdU labeled progenitors in the dentate gyrus; type: in vivo, mice; conditions: 14 day treatment group
From the text: as §1
as §2, with “table” for “Table”, “injection (FIG. 1).” for “injection.”
as §3

normal adult mice = experiment: Morris Water Maze task, CNTF 6a / CNTF 6c pellets 30 days; type: in vivo
Description: For behavioral studies, performance on the Morris Water Maze task was assessed in three groups of 10 mice each (placebo, CNTF6a and CNTF6c) which received peptide treatment for 30 days. To avoid daily stress due to injections, all animals undergoing behavioral studies received subcutaneous implants of CNTF 6a, CNTF 6c or placebo pellets as described above.
All animals for behavioral testing were coded such that the experimentator was blind to the assignment of the animals to specific treatment groups. The Morris Water Maze procedure was performed using a 110 cm diameter circular tank. Before training, the mice were handled gently for 2-3 min/day during 3 days to minimize non-specific stress. Acquisition was started with the submerged (invisible) escape platform in the North-East quadrant and each animal was given 60 sec to find the submerged escape platform. […] Five such acquisition trials were given on each day, for four consecutive days. A test for retention, or probe trial, was given 24 hours later. During the probe trial the mouse was allowed to swim in the tank without the escape platform for 60 seconds. This was followed by second and third probe trials 15 and 30 days from the first probe trial. Each probe trial was immediately followed by a “retraining session” consisting of 5 trials/animal to consolidate learned behavior.
The measures of learning were the time and distance swum to reach the escape platform. For retention during the probe trial, the tank was divided into four imaginary quadrants and a small zone where the escape platform had been (virtual platform). The measures of retention were the percent of time spent and the percent of distance swum in each quadrant, and the number of entries into the platform zone.
Mouse behavior in the Morris Water Maze was monitored by a Samsung Digital Camera (SDC 4304) mounted to the ceiling and tracked and timed by a SMART (Pan Lab/San Diego Instruments) version 2.0.14 software.
Since normal adult mice were used as experimental animals, it was crucial not to miss any effect on memory acquisition and learning that the 30-day peptide treatment might have had. Therefore, a partial training paradigm was used to evaluate learning and memory in the Morris Water Maze. Treated mice were trained on the Morris Water Maze for a total of 20 sessions spanning 4 days after which they were subjected to the first probe trial (P1). Two additional probe trials (P2 and P3) were administered 15 and 30 days after P1. […] Learning was evaluated in terms of latency and distance traveled to reach the invisible escape platform. Retention was measured on probe trials by the percent of time and travel distance in the target quadrant, and the number of crossings of the virtual platform.

[3] = system: granule cell layer of the dentate gyrus; experiment: Stereological counts of DCX-, BrdU-NeuN- and c-Fos-NeuN-IR cells in the granule cell layer; type: in vivo, mice
Description: (§4) To study neurogenesis, mice received subcutaneous implants of extended release depot pellets containing either CNTF peptides 6a or 6c for 30 days of continuous dosing (Innovative Research of America, Sarasota, Fla.). For control groups, the pellets consisted of the carrier biopolymer only. For implantation, the mice were anesthetized with 2.5% Avertin (0.38 ml for a 25 g animal). Under sterile conditions, the pellets were then subcutaneously implanted along the anterolateral aspect of the right shoulder with a precision trochar (Innovative Research of America). The animals were then transferred to the animal colony after recovery from anesthesia. There were no complications associated with the implantation and treatment. BrdU was given as two daily i.p. injections (100 mg/kg/dose) for five days starting on day 2 of peptide treatment. Neurogenesis was assessed in the dentate gyrus (DG) by counting the number of BrdU-immunoreactive (BrdU-IR), BrdU-DCX-IR and BrdU-NeuN-IR cells in various layers of the DG. Employing principles of unbiased stereology, the optical fractionator method was used to estimate cell counts for the DG.
The following primary antibodies were used for immunohistochemistry: anti-BrdU (1:400; Accurate) a rat monoclonal raised against BrdU; anti-DCX (1:200; Santa Cruz Biotechnology Inc.), a goat polyclonal antibody raised against an 18-amino acid peptide representing residues […] of human doublecortin; anti-NeuN (1:500; Chemicon), a mouse monoclonal antibody raised against purified cell nuclei from mouse brain; Anti-c-Fos (Ab-5) (1:500; Calbiochem), a rabbit polyclonal antibody raised against a synthetic peptide corresponding to amino-acids 4-17 of human c-Fos; SMI52 (1:1000; Sternberger Monoclonals), a mouse monoclonal antibody specific for the mature neuronal marker MAP2a,b; anti-synaptophysin, SYN (1:200; Chemicon), a mouse monoclonal antibody raised against vesicular fraction of bovine brain. The following secondary antibodies were used: Alexa 488-conjugated goat anti-mouse IgG antibody and Alexa 594-conjugated goat anti-rabbit or anti-rat IgG antibody (Molecular Probes); biotinylated anti-rat IgG antibody and Cy5-conjugated goat anti-mouse antibody (Jackson ImmunoResearch).
(§5) Immunohistochemistry was performed as described elsewhere (Kuhn et al., J. Neurosci 17 (15) (1997): 5820-5829). Briefly, every 5th brain section was chosen for quantification of cell number and every 10th section was chosen for staining intensity scanning. Immunohistochemistry was performed on free floating sections. For BrdU immunohistochemistry, epitope retrieval and staining were performed as previously described (Kuhn et al., J. Neurosci 17 (15) (1997): 5820-5829).
For BrdU-DCX-, BrdU-NeuN-, and c-Fos-NeuN-IR cells, only GCL (consisting of iGCL and oGLC described above) was counted using 100× oil objective in every 10th section. To ensure objectivity, z-stacks were collected for each double IR cell and analyzed later by generating maximum projection and 3D constructs.

[4] = system: neural progenitor cells of the dentate gyrus; experiment: Stereological counts of BrdU-IR cells in subregions of the hippocampus, 30-day pellets; type: in vivo, mice
Description: All in vivo studies for characterization of peptides (stereology and behavioral analysis) were performed on 8-10-month-old female retired breeders of C57Bl6 background. The animals were acclimatized for at least 3 weeks to exclude occasional pregnant mice from the studies. Mice were group-housed (3 animals per cage) with a 12:12 light:dark cycle and with free access to food and water. All procedures were conducted in accordance with approved protocols from our institutional Animal Welfare Committee.
as §4
At the end of treatment, all animals were anesthetized with an overdose of sodium pentobarbital and transcardially perfused with 0.1 M PBS. After perfusion, the brains were removed from the skull, the left hemisphere was immediately frozen for future biochemical analysis and the right hemisphere was fixed in 4% paraformaldehyde in 0.1 M PBS for at least 24 hours at room temperature. Tissues were then stored in 30% sucrose solutions at 4° C. until sectioning. The brains were sectioned sagittaly on a freezing sliding microtome at […] through the entire hippocampus and the sections were stored in glycol anti-freeze solution (Ethylene glycol, glycerol and 0.1 M PBS in 3:3:4 ratio) at −20° C. till further processing.
as §5
Neurogenesis was assessed in the DG by counting the number of BrdU-immunoreactive (BrdU-IR), BrdU-DCX-IR and BrdU-NeuN-IR cells in various layers of the DG. The granule cell layer (GCL) was subdivided into an inner and outer half (iGCL and oGCL). The iGCL consisted of the subgranular zone (SGZ, defined as a 2-3 nuclei thick layer bordering the GCL) and the inner half of the GCL adjacent to the Hilus (Hil); the outer GCL (oGCL) was defined as the half of the GCL adjacent to the Molecular layer (Mol). A cell in the middle of the GCL was considered part of the iGCL and a cell bordering the GCL in the Mol was included in oGCL counts. […] Hil included the superficial polymorphic layer.
All sections were collected using the random uniform sampling scheme. For BrdU-IR cells, counting was performed on every 5th section using 40× oil objective of a Nikon 90i fluorescent microscope equipped with Nikon C1 three laser confocal system and a Nikon DS U1 digital camera. Employing principles of unbiased stereology, the optical fractionator method was used to estimate cell counts for the DG (West et al., Anat Rec 231 (1991): 482-497). […]

[5] = daily i.p. injections for 2 weeks
[6] = both concentrations (0.5 and 5 nmoles/animal)
[7] = 30-day treated mice (n = 5/group)

CHQGCGGLFEC [Peptide 10, CNTF loop peptide, used as control]
proliferation of dentate gyrus progenitor cells [1, 5]: no effect
differentiation of dentate gyrus progenitors into DCX (doublecortin) expressing cells [2]: did not have any effect

EDQQVHFTPTEG (neurotrophic and/or neurogenic peptide) [Peptide 9]
cell proliferation in the SGZ ([1]; 0.5 nmoles/animal): increased cell proliferation
proliferation of dentate gyrus progenitor cells [1, 5]: statistically significant increase
differentiation of dentate gyrus progenitors into DCX (doublecortin) expressing cells [2]: did not have any effect

IPRNEADGMPINV (neurotrophic and/or neurogenic peptide) [Peptide 5]
cell proliferation in the SGZ (subgranular zone) [1, 6]: increased cell proliferation
cell proliferation in the oGCL (outer portion of the granule cell layer) [1, 6]: increased cell proliferation
proliferation of dentate gyrus progenitor cells compared with Peptide 9 [1, 5]: more proliferation than Peptide 9
proliferation of dentate gyrus progenitor cells [1, 5]: statistically significant increase
differentiation of dentate gyrus progenitors into DCX (doublecortin) expressing cells [2]: did not have any effect

V-G-D-G (VGDG; neurotrophic and/or neurogenic peptide) [CNTF 6a]
learning in the spatial reference memory task (swim latencies) (normal adult mice; 30-day pellets, 20 training sessions over 4 days): no effect
percent time spent in the target quadrant across three probe trials (normal adult mice; P1, P2, P3): reduced this time during subsequent P2 and P3
Stereological counts (±SEM) of cells expressing DCX in the granule cell layer [3, 7]: 360 ± 33
Stereological counts (±SEM), NeuN-BrdU/BrdU in the granule cell layer [3, 7]: 19 ± 2
Stereological counts (±SEM) of c-fos-NeuN cells in the granule cell layer ([3]; 30-day treated mice (n = 5/group), basal activity): 214 ± 27
increase in BrdU-NeuN-IR cells in the GCL compared with placebo ([3]; 30-day treatment): no effect
increase of DCX-IR cells in the GCL compared to placebo ([3]; 30-day treatment): did not show any significant difference
BrdU-IR cell numbers in the four sub-regions of the DG ([4]; 30-day pellets): no effect
increase of BrdU-IR cell counts in the GCL compared to placebo ([4]; 30-day pellets, 50 nmol/peptide/animal/day): not significant effect
Stereological counts (±SEM) of BrdU-IR cells, GCL [4, 7]: 493 ± 28
Stereological counts (±SEM) of BrdU-IR cells, Hil [4, 7]: 126 ± 8
Stereological counts (±SEM) of BrdU-IR cells, Mol [4, 7]: 538 ± 99
Stereological counts (±SEM) of BrdU-IR cells, iGCL [4, 7]: 382 ± 15
Stereological counts (±SEM) of BrdU-IR cells, oGCL [4, 7]: 110 ± 13
